biological target: T1, human plasma kallikrein (Homo sapiens, UniProt P03952); assay: In vitro enzyme inhibition of human plasma kallikrein (Pro-Phe-Arg-AMC cleavage); assay type: biochemical; conditions: human Plasma Kallikrein (Abcam), substrate Pro-Phe-Arg-AMC, 37° C., Tris-HCl pH 7.5; read-out: hPK IC50
T1 construct: purchased Abcam
Protocol: The ability of the compounds disclosed herein to inhibit human plasma kallikrein activity was quantified according to the procedures below.
A 10 mM solution of the test compound was made in DMSO. This solution was serially diluted 1:5 in DMSO to yield 2000, 400, 80, 16, 3.2, 0.64, 0.128, 0.0256 and […] compound test solutions. A control tube containing only DMSO is included. 16 μL of each compound test solution was combined with 384 μL of assay buffer (50 mM Tris-HCl pH 7.5, 150 mM NaCl, 0.01% Triton X-100) to yield a “4× test compound buffer stock”. Separately, a 40 nM solution of human Plasma Kallikrein (Abcam) and a 93.6 μM solution Pro-Phe-Arg-AMC (Bachem) were made using assay buffer. These solutions are hereby referred to as 4× hPK and 2×PFR-AMC, respectively.
60 μL of each 4× test compound buffer stock was combined with 60 μL of 4× hPK to yield 120 μL of “2× test compound buffer stock/2× hPK”. 50 μL was removed from this mixture and placed into duplicate wells on a Microfluor 1Black U-bottom microtiter plate (Thermo Scientific). This plate was incubated for 5 minutes at 37° C. To each well, 50 μL of pre-warmed 2×PFR-AMC was added to start the enzymatic reaction. Cleavage of PFR-AMC was monitored in a Biotek Synergy H4 reader set at 37° C. Readings are taken every 43 seconds for 1 hour. The highest mean velocity over 20 reads (˜15 minutes) is used to calculate the IC50. The IC50 is calculated using the Gen5 (Biotek Instruments).
The ability of the compounds in Table 4 to inhibit human plasma kallikrein activity was determined.

T1 sequence (P03952 391-638 limits assumed): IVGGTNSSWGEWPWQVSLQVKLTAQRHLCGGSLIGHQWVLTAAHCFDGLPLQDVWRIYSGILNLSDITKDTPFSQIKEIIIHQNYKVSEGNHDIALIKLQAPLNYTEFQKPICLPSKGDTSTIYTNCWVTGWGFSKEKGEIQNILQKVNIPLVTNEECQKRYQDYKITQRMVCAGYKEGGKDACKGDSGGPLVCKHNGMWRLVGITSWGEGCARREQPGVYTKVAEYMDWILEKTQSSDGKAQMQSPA
T1 sequence (P03952 20-390 partner limits assumed): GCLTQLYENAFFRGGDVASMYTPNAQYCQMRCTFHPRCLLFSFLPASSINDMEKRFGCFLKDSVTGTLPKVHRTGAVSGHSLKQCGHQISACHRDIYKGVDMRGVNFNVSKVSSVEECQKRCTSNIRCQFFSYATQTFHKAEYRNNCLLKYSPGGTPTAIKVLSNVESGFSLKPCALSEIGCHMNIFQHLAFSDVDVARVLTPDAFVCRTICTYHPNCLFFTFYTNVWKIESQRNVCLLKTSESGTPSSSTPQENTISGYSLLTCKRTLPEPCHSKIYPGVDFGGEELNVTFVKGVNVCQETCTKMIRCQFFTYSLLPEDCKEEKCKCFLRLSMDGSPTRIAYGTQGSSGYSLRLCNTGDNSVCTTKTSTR

IC50 [µM]	SMILES
≤ 0.1	Clc1cnc2ccc(Cc3nc4ncnc(NCc5n[nH]c6ccc(Cl)cc56)c4[nH]3)cc2c1 [Example 6, N-((5-chloro-1H-indazol-3-yl)methyl)-8-((3-chloroquinolin-6-yl)methyl)-7H-purin-6-amine]
≤ 0.1	Clc1cnc2ccc(Cc3nc4ncnc(NCc5cnc6[nH]cc(Cl)c6c5)c4[nH]3)cc2c1 [Example 8, N-((3-chloro-1H-pyrrolo[2,3-b]pyridin-5-yl)methyl)-8-((3-chloroquinolin-6-yl)methyl)-7H-purin-6-amine]
≤ 0.1	Fc1cc2[nH]cc(Cl)c2cc1CNc1ncnc2nc(Cc3ccc4ncc(C(F)(F)F)cc4c3)[nH]c12 [Example 11, N-((3-chloro-6-fluoro-1H-indol-5-yl)methyl)-8-((3-(trifluoromethyl)quinolin-6-yl)methyl)-7H-purin-6-amine]
≤ 0.1	FC(F)(F)c1cnc2ccc(Cc3nc4ncnc(NCc5n[nH]c6ccc(Cl)cc56)c4[nH]3)cc2c1 [Example 12, N-((5-chloro-1H-indazol-3-yl)methyl)-8-((3-(trifluoromethyl)quinolin-6-yl)methyl)-7H-purin-6-amine]
≤ 0.1	Fc1c(CNc2ncnc3nc(Cc4ccc5ncc(C(F)(F)F)cc5c4)[nH]c23)ccc2[nH]cc(Cl)c12 [Example 13, N-((3-chloro-4-fluoro-1H-indol-5-yl)methyl)-8-((3-(trifluoromethyl)quinolin-6-yl)methyl)-7H-purin-6-amine]
≤ 0.1	Nc1nccc2cc(CNc3ncnc4nc(Cc5ccc6ncc(C(F)(F)F)cc6c5)[nH]c34)ccc12 [Example 14, 6-(((8-((3-(trifluoromethyl)quinolin-6-yl)methyl)-7H-purin-6-yl)amino)methyl)isoquinolin-1-amine]
0.1 to 1	FC(F)(F)c1cnc2ccc(Cc3nc4ncnc(NCc5cnc6[nH]cc(Cl)c6c5)c4[nH]3)cc2c1 [Example 15, N-((3-chloro-1H-pyrrolo[2,3-b]pyridin-5-yl)methyl)-8-((3-(trifluoromethyl)quinolin-6-yl)methyl)-7H-purin-6-amine]

Continued, molecule first:

SMILES	IC50 [µM]
Clc1cnc2ccc(Cc3ccc4onc(NCc5cnc6[nH]cc(Cl)c6c5)c4c3)cc2c1 [Example 1, N-((3-chloro-1H-pyrrolo[2,3-b]pyridin-5-yl)methyl)-5-((3-chloroquinolin-6-yl)methyl)benzo[d]isoxazol-3-amine]	0.1 to 1
Cn1nc(NCc2cnc3[nH]cc(Cl)c3c2)c2cc(Cc3ccc4ncc(Cl)cc4c3)ccc21 [Example 2, N-((3-chloro-1H-pyrrolo[2,3-b]pyridin-5-yl)methyl)-5-((3-chloroquinolin-6-yl)methyl)-1-methyl-1H-indazol-3-amine]	0.1 to 1
Clc1cnc2ccc(Cc3ccc4[nH]nc(NCc5cnc6[nH]cc(Cl)c6c5)c4c3)cc2c1 [Example 3, N-((3-chloro-1H-pyrrolo[2,3-b]pyridin-5-yl)methyl)-5-((3-chloroquinolin-6-yl)methyl)-1H-indazol-3-amine]	0.1 to 1
Cc1cc(N)nc(C)c1CNc1nccc2nc(Cc3ccc4ncc(Cl)cc4c3)[nH]c12 [Example 4, N-((6-amino-2,4-dimethylpyridin-3-yl)methyl)-2-((3-chloroquinolin-6-yl)methyl)-3H-imidazo[4,5-c]pyridin-4-amine]	1 to 10
Fc1cc2[nH]cc(Cl)c2cc1CNc1ncnc2nc(Cc3ccc4ncc(Cl)cc4c3)[nH]c12 [Example 5]	≤ 0.1
Fc1c(CNc2ncnc3nc(Cc4ccc5ncc(Cl)cc5c4)[nH]c23)ccc2[nH]cc(Cl)c12 [Example 7, N-((3-chloro-4-fluoro-1H-indol-5-yl)methyl)-8-((3-chloroquinolin-6-yl)methyl)-7H-purin-6-amine]	≤ 0.1
Cc1cc(N)nc(C)c1CNc1ncnc2cn(Cc3ccc4ncc(Cl)cc4c3)nc12 [Example 9, N-((6-amino-2,4-dimethylpyridin-3-yl)methyl)-2-((3-chloroquinolin-6-yl)methyl)-2H-pyrazolo[4,3-d]pyrimidin-7-amine]	≤ 0.1
Cc1cc(N)nc(C)c1CNc1ncnc2nc(Cc3ccc4ncc(C(F)(F)F)cc4c3)[nH]c12 [Example 10, N-((6-amino-2,4-dimethylpyridin-3-yl)methyl)-8-((3-(trifluoromethyl)quinolin-6-yl)methyl)-7H-purin-6-amine]	≤ 0.1
Clc1c[nH]c2ncc(CNc3ncnc4nc(Cc5ccc6ncccc6c5)[nH]c34)cc12 [Example 17, N-((3-chloro-1H-pyrrolo[2,3-b]pyridin-5-yl)methyl)-8-(quinolin-6-ylmethyl)-7H-purin-6-amine]	0.1 to 1
Cc1cc(N)nc(C)c1CNc1ncnc2nc(Cc3ccc4ncc(Cl)cc4c3)[nH]c12 [Example 19, N-((6-amino-2,4-dimethylpyridin-3-yl)methyl)-8-((3-chloroquinolin-6-yl)methyl)-7H-purin-6-amine]	≤ 0.1
Clc1cnc2ccc(Cc3cc4c(NCc5cnc6[nH]cc(Cl)c6c5)n[nH]c4cn3)cc2c1 [Example 20, N-((3-chloro-1H-pyrrolo[2,3-b]pyridin-5-yl)methyl)-5-((3-chloroquinolin-6-yl)methyl)-1H-pyrazolo[3,4-c]pyridin-3-amine]	0.1 to 1
O=C(NCc1cc2c(Cl)c[nH]c2cc1F)c1ccc2c(c1)C(c1ccc3ncc(Cl)cc3c1)OC2 (stereo not shown) [Example 21, N-((3-chloro-6-fluoro-1H-indol-5-yl)methyl)-3-(3-chloroquinolin-6-yl)-1,3-dihydroisobenzofuran-5-carboxamide]	0.1 to 1

Source: patent publication US20190263818A1 (LifeSci Pharmaceuticals, Inc., priority 2015, published 2019)
